Measurements from ChEMBL document CHEMBL3232846, “Synthesis and discovery of highly functionalized mono- and bis-spiro-pyrrolidines as potent cholinesterase enzyme inhibitors” (Bioorg Med Chem Lett, 2014).

Columns and labels:
[1] = target: Acetylcholinesterase (Electrophorus electricus, UniProt O42275); assay: Inhibition of electric eel AChE using acetylthiocholine iodide as substrate preincubated for 15 mins by spectrophotometer analysis
[2] = Selectivity ratio of IC50 for electric eel AChE to IC50 for equine serum BChE
[3] = target: Cholinesterase (Equus caballus, UniProt P81908); assay: Inhibition of equine serum BChE using S-butyrylthiocholine chloride as substrate preincubated for 15 mins by spectrophotometer analysis
[4] = Selectivity ratio of IC50 for equine serum BChE to IC50 for electric eel AChE

Sequence of Cholinesterase (P81908 whole entry): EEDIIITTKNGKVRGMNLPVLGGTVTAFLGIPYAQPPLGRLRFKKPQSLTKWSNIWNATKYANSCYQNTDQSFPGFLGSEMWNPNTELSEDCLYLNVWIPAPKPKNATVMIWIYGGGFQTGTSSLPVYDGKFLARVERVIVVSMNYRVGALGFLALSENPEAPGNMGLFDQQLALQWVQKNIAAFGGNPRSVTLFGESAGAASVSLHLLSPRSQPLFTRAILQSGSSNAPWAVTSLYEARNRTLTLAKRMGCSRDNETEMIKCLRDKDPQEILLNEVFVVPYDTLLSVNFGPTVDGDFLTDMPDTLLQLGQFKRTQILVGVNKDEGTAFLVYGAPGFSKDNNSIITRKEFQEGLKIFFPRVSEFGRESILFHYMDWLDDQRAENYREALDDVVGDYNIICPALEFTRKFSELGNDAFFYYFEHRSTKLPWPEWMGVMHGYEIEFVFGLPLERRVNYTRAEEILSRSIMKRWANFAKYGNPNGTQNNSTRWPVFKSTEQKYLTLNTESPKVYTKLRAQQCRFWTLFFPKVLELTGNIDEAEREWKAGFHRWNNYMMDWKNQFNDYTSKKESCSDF
Sequence of Acetylcholinesterase (O42275 whole entry): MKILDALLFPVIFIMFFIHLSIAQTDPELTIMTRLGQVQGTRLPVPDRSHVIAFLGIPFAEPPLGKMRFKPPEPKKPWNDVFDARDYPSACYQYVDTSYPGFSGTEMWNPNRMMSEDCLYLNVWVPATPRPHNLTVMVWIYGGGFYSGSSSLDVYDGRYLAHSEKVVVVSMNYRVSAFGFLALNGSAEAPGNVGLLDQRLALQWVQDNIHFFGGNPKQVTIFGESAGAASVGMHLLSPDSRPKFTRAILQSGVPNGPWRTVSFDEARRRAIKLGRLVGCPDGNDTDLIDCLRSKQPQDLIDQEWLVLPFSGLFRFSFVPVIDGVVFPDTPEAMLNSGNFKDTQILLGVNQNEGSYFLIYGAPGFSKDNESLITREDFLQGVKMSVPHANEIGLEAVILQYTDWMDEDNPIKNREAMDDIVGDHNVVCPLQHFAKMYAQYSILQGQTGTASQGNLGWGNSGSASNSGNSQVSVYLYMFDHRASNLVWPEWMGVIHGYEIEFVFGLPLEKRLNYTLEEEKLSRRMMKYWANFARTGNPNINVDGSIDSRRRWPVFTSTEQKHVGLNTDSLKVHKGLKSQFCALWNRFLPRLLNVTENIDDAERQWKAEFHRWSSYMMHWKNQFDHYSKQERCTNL

Structure (SMILES) | IC50 [1] [µM] | Ratio IC50 [2] | IC50 [3] [µM] | Ratio IC50 [4]
C=CC(=O)N1C/C(=C\c2ccccc2)C(=O)C2(C1)C(c1ccccc1)C(c1ccccc1)NC21C(=O)Nc2ccccc21 (racemic) | 4.57 | 0.37 | 12.3 | 2.69
C=CC(=O)N1C/C(=C\c2ccccc2C)C(=O)C2(C1)C(c1ccccc1C)C(c1ccccc1)NC21C(=O)Nc2ccccc21 (racemic) | 10.2 | 0.47 | 21.8 | 2.13
C=CC(=O)N1C/C(=C\c2ccccc2OC)C(=O)C2(C1)C(c1ccccc1OC)C(c1ccccc1)NC21C(=O)Nc2ccccc21 (racemic) | 5.57 | 0.32 | 17.5 | 3.14
C=CC(=O)N1C/C(=C\c2ccccc2Cl)C(=O)C2(C1)C(c1ccccc1Cl)C(c1ccccc1)NC21C(=O)Nc2ccccc21 (racemic) | 1.68 | 0.08 | 22.2 | 13.2
C=CC(=O)N1C/C(=C\c2ccccc2F)C(=O)C2(C1)C(c1ccccc1F)C(c1ccccc1)NC21C(=O)Nc2ccccc21 (racemic) | 2.27 | 0.19 | 11.8 | 5.18
C=CC(=O)N1C/C(=C\c2cccc([N+](=O)[O-])c2)C(=O)C2(C1)C(c1cccc([N+](=O)[O-])c1)C(c1ccccc1)NC21C(=O)Nc2ccccc21 (racemic) | 15.1 | 1.43 | 10.6 | 0.7
C=CC(=O)N1C/C(=C\c2ccc(Cl)cc2Cl)C(=O)C2(C1)C(c1ccc(Cl)cc1Cl)C(c1ccccc1)NC21C(=O)Nc2ccccc21 (racemic) | 6.16 | 0.23 | 27.1 | 4.4
C=CC(=O)N1C/C(=C\c2ccc(C)cc2)C(=O)C2(C1)C(c1ccc(C)cc1)C(c1ccccc1)NC21C(=O)Nc2ccccc21 (racemic) | 14.6 | 2.48 | 5.87 | 0.4
C=CC(=O)N1C/C(=C\c2ccc(Cl)cc2)C(=O)C2(C1)C(c1ccc(Cl)cc1)C(c1ccccc1)NC21C(=O)Nc2ccccc21 (racemic) | 4.61 | 0.53 | 8.75 | 1.9
C=CC(=O)N1C/C(=C\c2ccc(F)cc2)C(=O)C2(C1)C(c1ccc(F)cc1)C(c1ccccc1)NC21C(=O)Nc2ccccc21 (racemic) | 5.98 | 2.17 | 2.75 | 0.46
C=CC(=O)N1C/C(=C\c2cccc3ccccc23)C(=O)C2(C1)C(c1cccc3ccccc13)C(c1ccccc1)NC21C(=O)Nc2ccccc21 (racemic) | 2.07 | 0.15 | 13.8 | 6.65
O=C(C1CC(c2ccccc2)NC12C(=O)Nc1ccccc12)N1C/C(=C\c2ccccc2)C(=O)C2(C1)C(c1ccccc1)C(c1ccccc1)NC21C(=O)Nc2ccccc21 (racemic) | 20.8 | 0.79 | 26.3 | 1.27
Cc1ccccc1/C=C1\CN(C(=O)C2CC(c3ccccc3)NC23C(=O)Nc2ccccc23)CC2(C1=O)C(c1ccccc1C)C(c1ccccc1)NC21C(=O)Nc2ccccc21 (racemic) | 30.5 | 1.05 | 29.1 | 0.95
COc1ccccc1/C=C1\CN(C(=O)C2CC(c3ccccc3)NC23C(=O)Nc2ccccc23)CC2(C1=O)C(c1ccccc1OC)C(c1ccccc1)NC21C(=O)Nc2ccccc21 (racemic) | 9.15 | 0.28 | 32.1 | 3.51
O=C(C1CC(c2ccccc2)NC12C(=O)Nc1ccccc12)N1C/C(=C\c2ccccc2Cl)C(=O)C2(C1)C(c1ccccc1Cl)C(c1ccccc1)NC21C(=O)Nc2ccccc21 (racemic) | 11.3 | 0.64 | 17.6 | 1.56
O=C(C1CC(c2ccccc2)NC12C(=O)Nc1ccccc12)N1C/C(=C\c2ccccc2F)C(=O)C2(C1)C(c1ccccc1F)C(c1ccccc1)NC21C(=O)Nc2ccccc21 (racemic) | 7.45 | 0.21 | 35.9 | 4.81
O=C(C1CC(c2ccccc2)NC12C(=O)Nc1ccccc12)N1C/C(=C\c2cccc([N+](=O)[O-])c2)C(=O)C2(C1)C(c1cccc([N+](=O)[O-])c1)C(c1ccccc1)NC21C(=O)Nc2ccccc21 (racemic) | 16.8 | 0.95 | 17.6 | 1.05
O=C(C1CC(c2ccccc2)NC12C(=O)Nc1ccccc12)N1C/C(=C\c2ccc(Cl)cc2Cl)C(=O)C2(C1)C(c1ccc(Cl)cc1Cl)C(c1ccccc1)NC21C(=O)Nc2ccccc21 (racemic) | 8.61 | 0.33 | 26.3 | 3.06
Cc1ccc(/C=C2\CN(C(=O)C3CC(c4ccccc4)NC34C(=O)Nc3ccccc34)CC3(C2=O)C(c2ccc(C)cc2)C(c2ccccc2)NC32C(=O)Nc3ccccc32)cc1 (racemic) | 20.2 | 1.02 | 19.8 | 0.98
O=C(C1CC(c2ccccc2)NC12C(=O)Nc1ccccc12)N1C/C(=C\c2ccc(Cl)cc2)C(=O)C2(C1)C(c1ccc(Cl)cc1)C(c1ccccc1)NC21C(=O)Nc2ccccc21 (racemic) | 12.3 | 0.44 | 27.8 | 2.25
O=C(C1CC(c2ccccc2)NC12C(=O)Nc1ccccc12)N1C/C(=C\c2ccc(F)cc2)C(=O)C2(C1)C(c1ccc(F)cc1)C(c1ccccc1)NC21C(=O)Nc2ccccc21 (racemic) | 21.9 | 1.51 | 14.4 | 0.66
O=C(C1CC(c2ccccc2)NC12C(=O)Nc1ccccc12)N1C/C(=C\c2cccc3ccccc23)C(=O)C2(C1)C(c1cccc3ccccc13)C(c1ccccc1)NC21C(=O)Nc2ccccc21 (racemic) | 9.24 | 0.48 | 19.2 | 2.08
